From the CheMixHub viscosity set
“And” between values parts separate entries of the source, which are not always exact repeats. Equal values may be shown once.

Columns and labels:
[1] = xn = mol fraction of the nth substance listed

CCn1cc[n+](C)c1.O=C([O-])[C@@H]1CCCN1
101 kPa
Conditions | viscosity [mPa·s]
298.15 K | 1195
303.15 K | 771.5

CCCC(C)=O
Conditions | viscosity
293.15 K, 101 kPa | 0.506 mPa·s
298.15 K, 101 kPa | 0.463 mPa·s and 0.4591 mPa·s and 0.4673 mPa·s
303.15 K, 100 kPa | 0.435 mPa·s
303.15 K, 101 kPa | 0.437 mPa·s and 0.435 mPa·s
303.15 K, 101.32 kPa | 0.466 mPa·s
303.15 K, 101.33 kPa | 0.456 mPa·s
308.15 K, 100 kPa | 0.422 mPa·s
308.15 K, 101 kPa | 0.413 mPa·s and 0.422 mPa·s and 0.4197 mPa·s
313.15 K, 100 kPa | 0.409 mPa·s
313.15 K, 101 kPa | 0.405 mPa·s
318.15 K, 101 kPa | 0.3782 mPa·s
323.15 K, 101 kPa | 0.3584 mPa·s

CC1CCCCC1O (configuration not stated)
viscosity [mPa·s]
Conditions | 293.15 K | 298.15 K | 303.15 K | 308.15 K | 313.15 K
100 kPa | 38.6 | 26.99 | 18.91 | 13.95 | 10.53
101 kPa | 21.7 | – | – | – | –

CC[N+](C)(CC)CCOC.F[B-](F)(F)F
101 kPa
Conditions | viscosity [mPa·s]
293.15 K | 228.1
298.15 K | 178.6
303.15 K | 140.4
308.15 K | 111.4
313.15 K | 89.27
318.15 K | 70.53
323.15 K | 57.55

CCC(C)(O)CC
Conditions | viscosity
298.15 K, 101.33 kPa | 3.918 mPa·s and 3.918 mPa·s

CCCCCCCCCCCCCC[P+](CCCCCC)(CCCCCC)CCCCCC.O=S(=O)([N-]S(=O)(=O)C(F)(F)F)C(F)(F)F
Conditions | viscosity [mPa·s]
313.15 K, 101 kPa | 150

CC[n+]1ccn(C)c1.N#C[N-]C#N
viscosity
Conditions | 298.15 K | 303.15 K | 308.15 K | 313.15 K | 318.15 K | 323.15 K
100 kPa | 14.78 mPa·s and 13.09 mPa·s | 12.88 mPa·s and 11.39 mPa·s | 11.3 mPa·s and 10 mPa·s | 9.759 mPa·s and 8.86 mPa·s | 8.929 mPa·s and 7.92 mPa·s | 8.01 mPa·s and 7.13 mPa·s
101 kPa | 14.9 mPa·s and 17.4 mPa·s | – | – | 10.07 mPa·s | – | –

CCCC[n+]1ccccc1.N#C[N-]C#N
101 kPa
Conditions | viscosity [mPa·s]
293.15 K | 41.05
298.15 K | 33.27
303.15 K | 27.62
308.15 K | 22.9
313.15 K | 19.3
318.15 K | 16.73
323.15 K | 14.44

CC(C)[O-].CC(C)[O-].CC(C)[O-].CC(C)[O-].[Ti+4]
101.3 kPa
Conditions | viscosity [mPa·s]
293.15 K | 3.144
303.15 K | 1.845
313.15 K | 1.279
323.15 K | 1.003

ClC(Cl)(Cl)Cl
Conditions | viscosity
293.15 K, 101 kPa | 0.95 mPa·s and 0.9826 mPa·s
298 K, 101 kPa | 0.9128 mPa·s
298 K, 101.3 kPa | 0.892 mPa·s
298 K, 101.33 kPa | 0.899 mPa·s
298.15 K, 100 kPa | 0.9062 mPa·s and 0.897 mPa·s
298.15 K, 101.32 kPa | 0.902 mPa·s and 0.902 mPa·s
298.16 K, 101 kPa | 0.907 mPa·s
301.85 K, 101 kPa | 0.9088 mPa·s
303 K, 101.33 kPa | 0.8371 mPa·s and 0.838 mPa·s
303.15 K, 100 kPa | 0.845 mPa·s and 0.838 mPa·s
303.15 K, 101.3 kPa | 0.8427 mPa·s and 0.8427 mPa·s
303.15 K, 101.33 kPa | 0.845 mPa·s and 0.845 mPa·s and 0.768 mPa·s
308 K, 101 kPa | 0.7888 mPa·s
308.15 K, 100 kPa | 0.7897 mPa·s and 0.784 mPa·s
308.15 K, 101.33 kPa | 0.717 mPa·s
312.15 K, 101 kPa | 0.7815 mPa·s
313 K, 101.33 kPa | 0.7436 mPa·s and 0.735 mPa·s
313.15 K, 100 kPa | 0.7394 mPa·s and 0.734 mPa·s
313.15 K, 101.33 kPa | 0.739 mPa·s and 0.7392 mPa·s
318 K, 101 kPa | 0.6788 mPa·s
318 K, 101.3 kPa | 0.7444 mPa·s and 0.7449 mPa·s
318 K, 101.33 kPa | 0.7449 mPa·s
318.15 K, 100 kPa | 0.689 mPa·s
323 K, 101.33 kPa | 0.6566 mPa·s and 0.653 mPa·s
323.15 K, 101 kPa | 0.712 mPa·s
323.15 K, 101.33 kPa | 0.6543 mPa·s

CCN(CC)CC
Conditions | viscosity
293.15 K, 100 kPa | 0.3608 mPa·s
293.15 K, 101 kPa | 0.369 mPa·s
297.85 K, 101 kPa | 0.352 mPa·s
298 K, 101.33 kPa | 0.35 mPa·s
298.15 K, 100 kPa | 0.353 mPa·s and 0.3534 mPa·s (2×)
298.15 K, 101 kPa | 0.344 mPa·s
302.85 K, 101 kPa | 0.335 mPa·s
303.15 K, 100 kPa | 0.339 mPa·s and 0.3387 mPa·s (2×)
303.15 K, 101 kPa | 0.333 mPa·s
303.15 K, 101.33 kPa | 0.3592 mPa·s and 0.3592 mPa·s
307.85 K, 101 kPa | 0.319 mPa·s
308.15 K, 100 kPa | 0.322 mPa·s and 0.3221 mPa·s (2×)
312.95 K, 101 kPa | 0.304 mPa·s
313.15 K, 101 kPa | 0.302 mPa·s
313.15 K, 101.33 kPa | 0.3249 mPa·s and 0.3249 mPa·s
317.75 K, 101 kPa | 0.291 mPa·s
322.75 K, 101 kPa | 0.278 mPa·s
323.15 K, 101 kPa | 0.275 mPa·s

CCOC(=O)c1ccccc1O
Conditions | viscosity [mPa·s]
303.15 K, 101 kPa | 3.117

CCCCCCCC(=O)[O-].CC[NH+](C(C)C)C(C)C
Conditions | viscosity [mPa·s]
298.15 K, 101.3 kPa | 13.52

CCCOC(C)=O
viscosity
Conditions | 293.15 K | 298.15 K | 303.15 K | 308.15 K | 313.15 K | 318.15 K
101 kPa | 0.591 mPa·s | 0.56 mPa·s and 0.553 mPa·s and 0.562 mPa·s | 0.525 mPa·s | 0.487 mPa·s and 0.488 mPa·s | 0.462 mPa·s and 0.451 mPa·s | 0.439 mPa·s
101.33 kPa | – | 0.563 mPa·s | 0.524 mPa·s and 0.512 mPa·s | 0.489 mPa·s and 0.483 mPa·s | – | –

ClC(Cl)(Cl)Cl + CCCC(=O)OCC
[1], 101.33 kPa
Conditions | viscosity [mPa·s]
303.15 K, x1 = 0.061 | 0.606
303.15 K, x1 = 0.1443 | 0.621
303.15 K, x1 = 0.2812 | 0.648
303.15 K, x1 = 0.3929 | 0.672
303.15 K, x1 = 0.5226 | 0.699
303.15 K, x1 = 0.5625 | 0.708
303.15 K, x1 = 0.6324 | 0.726
303.15 K, x1 = 0.7331 | 0.748
303.15 K, x1 = 0.8278 | 0.778
303.15 K, x1 = 0.8866 | 0.798
303.15 K, x1 = 0.9455 | 0.819
313.15 K, x1 = 0.2056 | 0.586
313.15 K, x1 = 0.4083 | 0.615
313.15 K, x1 = 0.5058 | 0.631
313.15 K, x1 = 0.6059 | 0.647
313.15 K, x1 = 0.799 | 0.69

CCN(CC)CC + CCCCN
viscosity [mPa·s], [1], 101.33 kPa
Conditions | x1 = 0.1038 | x1 = 0.2009 | x1 = 0.4065 | x1 = 0.5021 | x1 = 0.5996 | x1 = 0.801 | x1 = 0.8898
303.15 K | 0.4186 | 0.4019 | 0.3761 | 0.3681 | 0.3611 | 0.357 | 0.3569
313.15 K | 0.3692 | 0.3555 | 0.3345 | 0.329 | 0.3244 | 0.3216 | 0.3228

ClC(Cl)(Cl)Cl + Cc1ccc(C)cc1
[1], 298.15 K, 101 kPa
Conditions | viscosity [mPa·s]
x2 = 0.1 | 0.87
x2 = 0.2 | 0.8339
x2 = 0.3 | 0.7997
x2 = 0.4 | 0.7675
x2 = 0.5 | 0.7372
x2 = 0.6 | 0.7087
x2 = 0.7 | 0.6816
x2 = 0.8 | 0.6556
x2 = 0.9 | 0.6301
